In the NIST ThermoML archive (doi:10.1007/s10765-013-1546-4):

Conditions: Liquid; for viscosity: Vibrating wire viscometry; for vapor or sublimation pressure: Closed cell (Static) method

CCF [fluoroethane]
viscosity [mPa·s]
Conditions	5000 kPa	10000 kPa	15000 kPa	20000 kPa	25000 kPa	30000 kPa
243.17 K	0.232	0.2433	0.2538	0.2643	0.2748	0.285
253.16 K	0.2037	0.2128	0.2214	0.2315	0.2396	0.2489
263.17 K	0.1834	0.1926	0.2012	0.2097	0.2177	0.2262
273.15 K	0.1642	0.1729	0.1812	0.1894	0.1971	0.205
283.15 K	0.147	0.1553	0.1637	0.1713	0.1794	0.1868
293.15 K	0.1322	0.1406	0.1489	0.1566	0.1642	0.1717
303.15 K	0.1196	0.1279	0.136	0.1437	0.1512	0.1584
313.14 K	0.1078	0.1164	0.1242	0.132	0.1393	0.1468
323.16 K	0.0968	0.1054	0.1134	0.1209	0.1282	0.1356
333.16 K	0.0866	0.0958	0.1039	0.1113	0.1181	0.1247
343.16 K	0.0766	0.0866	0.0953	0.1027	0.1094	0.1159
353.16 K	0.0666	0.0782	0.0871	0.0946	0.1014	0.108
363.16 K	0.0562	0.0699	0.0796	0.0873	0.0943	0.1005

Conditions	vapor or sublimation pressure [kPa]	viscosity [mPa·s]
243.17 K	140	0.2238
253.16 K	210	0.1961
263.17 K	310	0.175
273.15 K	440	0.1565
283.15 K	600	0.1395
293.15 K	810	0.1247
303.15 K	1060	0.1122
313.14 K	1360	0.1003
323.16 K	1730	0.0902
333.16 K	2170	0.0803
343.16 K	2680	0.0708
353.16 K	3280	0.0614
363.16 K	3990	0.0514
